Reference: patent publication US6521594B1, “Method and composition for treating thrombosis” (La Jolla Cancer Research Foundation, priority 1990, dated 2003)
Like-named read-outs stand apart in the source and are kept apart here.

Tests used:
platelets [1] = test: Ex vivo platelet aggregation in dogs (Example XII.H); set-up: species or system dog; dose or concentration left out as unconfirmed
Protocol: More importantly, several peptides in FIG. 23 were administered to dogs (according to the method of Example VII) at doses capable of inhibiting ex vivo platelet aggregation by >95%.
The bleeding time indicated in the parentheses was measured at a five-fold higher concentration of peptide. […]

canine platelets = test: Canine platelet aggregation in vitro (ADP, arachidonic acid, collagen); type: cell-based, dog
Protocol: (§1) Platelet counts and ex vivo aggregation studies were performed one hour before and 1, 3, and 5 hours after application of anodal direct current.
Epinephrine (550 nM) was used to prime platelets before stimulation with arachidonic acid. Peptides were added in 1% dilutions to the PRP solutions.

coronary thrombosis = test: Electrically induced canine coronary thrombosis (time to full occlusion); type: in vivo, dog
Protocol: Male mongrel dogs weighing 14 to 20 kg were selected based on proper aggregation of their platelets in response to arachidonic acid, collagen, and adenosine disphosphate (ADP) and based on similar weights and hemodynamic properties.
Before surgery, the animals were anesthetized with sodium pentobarbital (30 mg/kg, i.v.) and then intubated and ventilated on room air with positive pressure using a respirator (Harvard Apparatus, S. Natick, Mass.) at a volume of 30 ml/kg and a frequency of 12 breaths/min. Surgery, performed under aseptic conditions, was begun with the placement of cannulae into the left carotid artery and jugular vein for monitoring arterial blood pressure (Statham P23 pressure transducer, Gould, Inc., Cardiovascular Products, Oxnard, Calif.) and administering intravenous fluids.
The heart was exposed via a left thoracotomy through the 5th intercostal space. A 2-cm segment of the left circumflex coronary artery (LCCA) was isolated from surrounding tissue by blunt dissection. […] The intra-coronary electrode was constructed by attaching a 25-gauge hypodermic needle tip to a 30-gauge Teflon-insulated silver-coated copper wire. The mechanical occluder was constructed of stainless steel in a C shape with a Teflon screw (2 mm diameter) on top. It was adjusted to control vessel circumference and decrease the reactive hyperemic flow due to a 10-sec (full) occlusion by 50-70% without affecting basal coronary blood flow (FIG. 1). A monopolar epicardial electrode was sutured to the surface of the ventricle in the region of LCCA distribution to monitor ischemic changes in the electrocardiogram (ECG). The left atrium was cannulated with polythylene tubing for administration of the peptide. Continuous recordings of blood pressure, limb lead II ECG, epicardial electrogram, and mean and phasic LCCA blood flow were obtained on a Model 7 polygraph (Grass Instrument Co., Quincy, Mass.).
One hour after the completion of surgery, a 100 micro-amp continuous anodal direct current delivered from a 9 volt nickel-cadmium battery was applied to the intimal surface of the LCCA. The anode of the battery was in series with a 250,000 ohm potentiometer and the intraluminal coronary artery electrode. The electric circuit was completed by placing the cathode in a subcutaneous site. Electrical stimulation was applied for three hours. At the conclusion of each experiment, the heart was fibrillated electrically and quickly removed, and the LCCA was dissected free as far as possible to verify the position of the implanted anodal electrode.
(§2) Animals were randomly assigned to two treatment groups: vehicle control (i.e., normal saline) or RGD peptides at various concentrations. Peptides were administered intra-atrially in both bolus and continuous injections. Each bolus injection consisted of 0.5 to 10 mg/kg and was administered 15 minutes before application of the current. A continuous infusion of the same peptide was then started immediately after completion of this initial injection. Animals received a 25 μg/kg/min to 200 μg/kg/min infusion. The anti-thrombotic effects of the peptides were monitored until 30 minutes after the occurrence of a persistent, occlusive thrombus or five hours after the initiation of electrical stimulation (whichever resulted first). If an occlusive thrombus had not developed within four hours after the initiation of current, the peptide infusion was stopped.
Coronary thrombosis was quantified as the time to full occlusion. The effects of the various peptide treatments on coronary thrombosis is illustrated in FIG. 4.

[2] = system: prosthetic arterial graft thrombosis; test: Platelet and fibrinogen uptake by Gore-Tex arterial grafts in ex vivo shunt; set-up: species or system baboon
Protocol: Adult male baboons (weighing 16 to 25 kg) were used in these studies. These were sedated with ketamine hydrochloride (200 to 250 mg intramuscular injection) and maintained under anesthesia with sodium pentobarbital (50 to 75 mg administered intravenously as necessary).
Twenty-four hours before the ex vivo shunt was established, platelets were isolated from 500 ml of blood from the test animal and labelled with ca. 500 microcuries of indium-111 oxine (Medi+Physics, Emeryville, Calif.), which irreversibly and specifically binds to platelets with an efficiency of 50%. Immediately after labelling, these platelets were then injected back into the animal and allowed to circulate for 24 hours. Immediately before the start of the study, fibrinogen that had been isolated from the animal and labelled with iodine-131 (DuPont Nuclear, Boston, Mass.) was also injected back into the animal. Also at this time, baseline determinations of the clotting and template bleeding times were made, and blood samples were drawn for hematology studies.
To establish the ex vivo shunt, the femoral artery and vein were percutaneously cannulated with introducer catheters (KMA Inc., Mansfield, Mass.). The catheters were then connected to medical-grade, heparin-coated silastic tubing (2.59 mm internal diameter, (Extracorporeal Medical Specialties, Inc., King of Prussia, Pa.). […] Finally, a 5 cm-long test segment of a 4 mm (internal diameter) vascular graft was inserted at the apex of the circuit. The graft used in these studies was Gore-tex (expanded polytetrafluoroethylene, (W. L. Gore and Associates, Inc., Flagstaff, Ariz.). An electromagnetic flow probe was then inserted into the tubing circuit to measure blood flow, which was maintained at 100 ml/min. by varying the resistance imported by a partially occluding screw clamp that was distal to the probe. Finally, a 5 cm-long test segment of a 4 mm (internal diameter) vascular graft was inserted at the apex of the circuit. The graft used in these studies was Gore-tex (expanded polytetrafluoroethylene, W. L. Gore and Associates, Inc., Flagstaff, Ariz.).
Platelet deposition onto the grafts was monitored by dynamic scanning with a gamma camera (Sigma 400, Ohio Nuclear, Inc., Sohon, Ohio), which detects the gamma radiation emitted by the ^111indium-labelled platelets. Once the circuit was in place, the animal was placed under this camera, and blood flow was initiated. Scans were then taken at the rate of one frame per two minutes for two hours. The data from these scans were collected on a dedicated Digital MDA computer (Maynard, Mass.). […]

platelets [3] = test: Ex vivo platelet aggregation on PRP of baboon; type: in vivo; conditions: animal 2; ADP 10 μm; 0, 1 and 2 hours
Protocol: At one- and two-hour time points, template bleeding times were measured, and blood samples were drawn to assess the hematology aggregation studies. Platelet aggregation studies were performed as described in Example V using ADP as the stimulus.
In addition, platelet aggregation studies were conducted on PRP derived from the second animal. Whole blood was drawn at three time points (0, 1 and 2 hours) of both control and experimental shunts.

platelets [4] = test: Ex vivo platelet aggregation in the canine coronary thrombosis study; set-up: species or system dog
Protocol: For all ex vivo studies (see FIG. 3), control aggregation values were standardized to the percentages of light transmission observed in PRP and PPP samples (0% and 100%, respectively).
as §2, §1
Platelet aggregation was also determined ex vivo at one, three, and five hours after current application. For these studies, arachidonic acid, or collagen was again used to stimulate the platelets.

[5] = molecular target: T1, vitronectin receptor (Vn-R) (Homo sapiens, UniProt P05106+P06756); test: Vitronectin receptor binding (ELISA or liposome attachment assay); conditions: read-out: VnR Binding (IC50), purified receptor
T1 construct: from tissue; host or cells: human placenta
Protocol: Receptor and ligand purifications were performed according to the methods in this Example or those in Example XI.C. Receptors were purified according to the procedures of Pytela et al. (Methods Enzymol. 144:475 (1987)), incorporated herein by reference. […] Except where stated, all procedures were carried out at 4° C. The peptide column was washed with three volumes of Tris-buffered saline (TBS) containing 1 mM Ca^2+ and 25 mM OG and then with TBS containing 1 mM Ca^2+ and 25 mM octyl thioglucoside (OTG) at room temperature. […] Finally, Ca^2+ and Mg^+2 were added to eluted fractions to achieve final concentrations of 1 mM for both ions.
Maxisorp microtiter plates were coated with 2 μg/ml human vitronectin dissolved in PBS (50 ml/well) and stored overnight at 4° C. The plates were washed two times with PBS-0.05% Tween-20 (wash buffer) and blocked by incubating with about 150 μl/well of assay buffer (1%, BSA (RIA grade or better) in 50 mM Tris-HCl, 100 mM NaCl, 1 mM MgCl2, CaCl2, MnCl2 pH 7.4) for 60 minutes. […] The plates were read at 492-405 nm and the data analyzed by four-parameters fit. […]
In parallel studies with the platelet aggregation experiments (described in Example V), the apparent affinities of peptides for GP IIb/IIIa, fibronectin and vitronectin receptors were determined. […]
Those for VnR and GP IIb/IIIa were determined either by ELISA or liposome attachment assay (Example IV).

αIIbβ3 = molecular target: T2, αIIbβ3 (Homo sapiens, UniProt P05106+P08514); test: αIIbβ3 (IIb/IIIa-fibrinogen) ELISA of Example XII; type: binding; conditions: comparator analogue 1
T2 construct: Platelet glycoprotein IIb/IIIa was purified from outdated human platelets; from tissue; host or cells: outdated human platelets
Protocol: Microtiter plates were coated overnight at room temperature with 110 μL of human fibrinogen (at 10 μg/mL) diluted in TBS. The plates were then washed three times with 200 μL per well of TBS+0.05% Tween-20. Fifty (50) μL of purified IIb/IIIa diluted in TBS with 20 mM octylglucoside, 2 mM MgCl2 and 2 mM CaCl2 were added to the wells. Fifty (50) μLs of peptide in the same buffer were then added in 10-fold serial dilutions and the plates were incubated for three hours at room temperature. The plates were washed three times with TBS-Tween and 100 μL of rabbit anti-IIb/IIIa were added to each well. After a two hour room temperature incubation, the plates were washed and the remaining steps done as described for the FnR ELISA.
The peptides described in this Example were synthesized according to the methods of Examples I and XI. Selectivity and potency were measured according to the methods of Examples II through XI. The peptide identification numbers used in this Example are consistent and relevant to this Example only. Some of the peptides are identified by other nomenclature elsewhere in this document.

platelets [6] = molecular target: T3, platelets (Homo sapiens, UniProt P05106+P08514); type: cell-based; conditions: ADP 10 μm; citrated PRP; read-out: ADP-Stimulated Aggregation (IC50)
Protocol: Briefly, the change in light transmission was measured through a stirred suspension of platelets in an aggregometer (Model 400 VS, Chrono-Log, Havertown, Pa., USA). […] In studies using thrombin, the PRP was gel-filtered on Sepharose 2B in divalent ion-free Tyrode's solution containing 2% BSA. For all studies, the reference standard was platelet-poor plasma, which was obtained by centrifuging PRP at 1000×g for 5 min.
All aggregation studies were performed at 37° C. with a constantly stirred suspension of 3×10^8 platelets/ml. (Platelet count was determined with the aid of a hemacytometer.) Peptides and stimulants were added to these suspensions in 1% dilutions. The PRP and gel-filtered platelets were used within three hours from the time of blood collection.
Peptide anti-aggregation potencies were determined from dose-responsive curves for the inhibition of the maximum aggregation responses stimulated by physiologic doses of ADP (10 μm) and thrombin (2 U/ml).

platelets [7] = molecular target: T3, platelets; test: Human platelet aggregation in PRP (modified assay, Table II); type: cell-based; conditions: citrate, collagen, U46619 or ADP
Protocol: In an independent study, a slightly modified aggregation assay was used. Platelet aggregation assays were performed in human platelet rich plasma (PRP). […] The blood was centrifuged at 160×g for 10 minutes at 22° C. and allowed to stand for 5 minutes after which the PRP was decanted. Platelet poor plasma (PPP) was isolated from the remaining blood after centrifugation at 2000×g for 25 minutes. The platelet count of the PRP was diluted to about 300,000 platelets per microliter with PPP.
A 225 μl aliquot of PRP plus 25 μl of either a dilution of the test inhibitor sample or a control (PBS) was incubated for 5 minutes in a Chrono-log Whole Blood Aggregometer at 37° C.

[8] = animal 1, two bolus IV injections of 10 mg/kg
[9] = animal 2, 10 mg/kg bolus IV + 10 mg/kg/hr infusion for 2 h
[10] = 10 mg/kg injection, 1, 3 and 5 h

T3 sequence (P08514 32-1039): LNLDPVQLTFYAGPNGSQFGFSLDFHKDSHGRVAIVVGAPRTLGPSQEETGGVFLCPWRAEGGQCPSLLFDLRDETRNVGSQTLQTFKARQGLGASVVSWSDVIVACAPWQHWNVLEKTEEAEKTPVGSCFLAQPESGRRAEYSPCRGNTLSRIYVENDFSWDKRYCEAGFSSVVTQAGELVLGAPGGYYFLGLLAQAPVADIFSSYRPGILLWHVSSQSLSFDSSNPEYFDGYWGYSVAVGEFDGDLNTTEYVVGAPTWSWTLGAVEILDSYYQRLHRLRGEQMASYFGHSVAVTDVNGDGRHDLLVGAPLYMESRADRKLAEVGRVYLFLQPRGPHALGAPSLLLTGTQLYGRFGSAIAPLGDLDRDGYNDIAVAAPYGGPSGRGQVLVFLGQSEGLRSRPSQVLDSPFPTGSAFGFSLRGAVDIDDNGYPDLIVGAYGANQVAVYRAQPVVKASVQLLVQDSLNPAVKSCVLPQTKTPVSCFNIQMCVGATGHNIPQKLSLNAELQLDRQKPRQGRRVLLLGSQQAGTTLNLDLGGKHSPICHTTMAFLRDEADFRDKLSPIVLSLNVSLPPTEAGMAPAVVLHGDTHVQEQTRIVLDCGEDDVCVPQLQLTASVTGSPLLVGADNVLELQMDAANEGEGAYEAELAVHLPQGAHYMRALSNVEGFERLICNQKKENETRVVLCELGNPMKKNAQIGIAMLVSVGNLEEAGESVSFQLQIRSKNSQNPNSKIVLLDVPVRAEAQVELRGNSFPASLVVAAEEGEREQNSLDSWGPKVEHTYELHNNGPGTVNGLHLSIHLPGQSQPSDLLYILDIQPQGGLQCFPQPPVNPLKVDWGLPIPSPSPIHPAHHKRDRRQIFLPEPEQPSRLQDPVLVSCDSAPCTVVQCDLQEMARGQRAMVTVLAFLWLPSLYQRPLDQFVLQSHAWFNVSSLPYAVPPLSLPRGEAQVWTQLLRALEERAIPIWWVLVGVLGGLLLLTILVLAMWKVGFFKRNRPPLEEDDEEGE
T3 sequence (P05106 27-788): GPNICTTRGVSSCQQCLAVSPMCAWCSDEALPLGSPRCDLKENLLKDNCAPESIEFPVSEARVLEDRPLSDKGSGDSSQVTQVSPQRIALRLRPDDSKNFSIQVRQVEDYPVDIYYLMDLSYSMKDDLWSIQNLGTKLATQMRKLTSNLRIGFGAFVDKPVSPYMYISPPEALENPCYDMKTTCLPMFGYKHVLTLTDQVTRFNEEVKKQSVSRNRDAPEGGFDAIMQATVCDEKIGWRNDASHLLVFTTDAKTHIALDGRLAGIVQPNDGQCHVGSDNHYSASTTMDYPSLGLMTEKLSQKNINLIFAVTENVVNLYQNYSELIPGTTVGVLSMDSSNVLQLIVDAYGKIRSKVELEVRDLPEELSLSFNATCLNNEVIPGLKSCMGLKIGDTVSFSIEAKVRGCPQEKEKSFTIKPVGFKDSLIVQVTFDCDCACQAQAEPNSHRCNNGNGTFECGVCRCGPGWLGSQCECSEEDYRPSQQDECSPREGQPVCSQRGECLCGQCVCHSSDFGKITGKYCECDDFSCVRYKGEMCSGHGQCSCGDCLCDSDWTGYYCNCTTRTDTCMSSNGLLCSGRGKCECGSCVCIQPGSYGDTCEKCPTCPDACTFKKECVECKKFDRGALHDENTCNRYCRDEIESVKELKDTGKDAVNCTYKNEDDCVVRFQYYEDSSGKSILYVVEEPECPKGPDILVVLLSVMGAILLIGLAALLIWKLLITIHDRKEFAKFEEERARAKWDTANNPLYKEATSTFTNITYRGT
T2 sequence (P08514 32-887 limits assumed): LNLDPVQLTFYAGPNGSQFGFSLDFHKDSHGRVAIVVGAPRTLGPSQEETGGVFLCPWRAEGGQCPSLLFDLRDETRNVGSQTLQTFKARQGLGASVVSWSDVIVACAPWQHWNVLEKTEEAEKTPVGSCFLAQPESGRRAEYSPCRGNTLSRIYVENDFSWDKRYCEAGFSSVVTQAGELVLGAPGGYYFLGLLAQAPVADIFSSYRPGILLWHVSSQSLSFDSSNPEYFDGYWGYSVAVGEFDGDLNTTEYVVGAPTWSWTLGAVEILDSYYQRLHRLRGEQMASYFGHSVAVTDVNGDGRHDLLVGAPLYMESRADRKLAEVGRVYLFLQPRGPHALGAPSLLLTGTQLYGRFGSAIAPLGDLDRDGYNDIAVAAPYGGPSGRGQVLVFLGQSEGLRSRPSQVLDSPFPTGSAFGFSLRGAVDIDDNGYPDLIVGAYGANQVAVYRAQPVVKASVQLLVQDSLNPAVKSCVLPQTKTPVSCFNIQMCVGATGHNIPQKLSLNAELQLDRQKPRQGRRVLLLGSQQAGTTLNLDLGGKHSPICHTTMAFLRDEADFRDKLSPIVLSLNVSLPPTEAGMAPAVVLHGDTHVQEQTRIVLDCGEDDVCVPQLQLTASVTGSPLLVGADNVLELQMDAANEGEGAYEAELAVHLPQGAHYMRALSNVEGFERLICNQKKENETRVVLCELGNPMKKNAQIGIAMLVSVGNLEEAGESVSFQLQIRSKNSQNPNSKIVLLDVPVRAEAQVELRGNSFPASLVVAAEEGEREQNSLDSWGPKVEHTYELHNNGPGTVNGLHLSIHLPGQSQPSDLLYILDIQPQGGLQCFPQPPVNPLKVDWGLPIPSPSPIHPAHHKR
T2 sequence (P08514 891-1039 partner limits assumed): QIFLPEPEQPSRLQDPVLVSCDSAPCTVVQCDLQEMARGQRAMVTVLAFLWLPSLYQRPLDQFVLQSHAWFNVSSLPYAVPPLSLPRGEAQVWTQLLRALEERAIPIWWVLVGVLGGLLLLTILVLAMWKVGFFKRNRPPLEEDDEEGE
T2 sequence (P05106 27-788): as the sequence (P05106 27-788) above
T1 sequence (P06756 31-889 limits assumed): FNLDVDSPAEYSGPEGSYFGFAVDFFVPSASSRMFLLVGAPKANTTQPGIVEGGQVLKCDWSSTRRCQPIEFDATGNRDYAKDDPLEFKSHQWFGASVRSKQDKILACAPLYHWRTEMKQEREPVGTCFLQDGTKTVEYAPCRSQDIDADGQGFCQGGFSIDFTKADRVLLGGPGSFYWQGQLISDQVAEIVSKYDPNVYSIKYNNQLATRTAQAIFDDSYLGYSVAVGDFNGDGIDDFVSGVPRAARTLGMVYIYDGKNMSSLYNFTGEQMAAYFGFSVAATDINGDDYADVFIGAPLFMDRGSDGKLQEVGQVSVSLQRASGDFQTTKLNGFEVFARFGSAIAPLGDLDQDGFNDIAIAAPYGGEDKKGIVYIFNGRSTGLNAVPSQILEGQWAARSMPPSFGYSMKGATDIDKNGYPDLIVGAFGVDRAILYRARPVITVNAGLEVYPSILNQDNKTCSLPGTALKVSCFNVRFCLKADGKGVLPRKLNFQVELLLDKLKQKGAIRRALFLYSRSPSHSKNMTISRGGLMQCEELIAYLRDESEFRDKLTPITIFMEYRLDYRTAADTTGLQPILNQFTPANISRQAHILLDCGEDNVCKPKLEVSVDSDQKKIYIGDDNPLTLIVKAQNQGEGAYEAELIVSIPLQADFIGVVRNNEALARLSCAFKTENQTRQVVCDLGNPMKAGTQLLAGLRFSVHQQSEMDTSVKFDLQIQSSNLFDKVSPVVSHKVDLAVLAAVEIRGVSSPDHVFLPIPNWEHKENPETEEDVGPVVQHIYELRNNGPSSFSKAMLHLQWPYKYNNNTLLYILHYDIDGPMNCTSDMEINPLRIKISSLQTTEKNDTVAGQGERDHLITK
T1 sequence (P06756 891-1048 limits assumed): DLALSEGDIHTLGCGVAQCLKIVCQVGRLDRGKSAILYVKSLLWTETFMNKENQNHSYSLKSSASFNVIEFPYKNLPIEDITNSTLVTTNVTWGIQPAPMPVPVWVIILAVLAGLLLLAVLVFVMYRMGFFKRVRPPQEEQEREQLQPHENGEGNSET
T1 sequence (P05106 27-788): as the sequence (P05106 27-788) above

Ac-CNPRGD(Y-OMe)RCNH2 [8X]
inhibition of ex vivo platelet aggregation (platelets [1]): > 95%

G(Pen)GHRGDLRCA [2G]
IC50 (canine platelets; 10 μm ADP, […] arachidonic acid or 9.6 micrograms/ml collagen, canine PRP, read-out: IC50 against canine platelet aggregation): 15 to 30 µM | coronary thrombosis: time to full occlusion (coronary thrombosis; 10 mg/kg): did not significantly influence | reduction in 111In-platelet uptake by graft [2, 8]: 90% | reduction in 131I-fibrinogen uptake by graft [2, 8]: 79% | reduction in labelled fibrinogen uptake by graft [2, 9]: 78% | reduction in labelled platelet uptake by graft [2, 9]: 84% | ex vivo platelet aggregation response (platelets [3]): completely unresponsive to the peptide treatment | effect on ADP-stimulated ex vivo aggregation (platelets [4]; [10]): substantially inhibited | inhibition of AA-stimulated ex vivo aggregation relative to control (platelets [4]; [10]): 43-70% | inhibition of collagen-stimulated ex vivo aggregation relative to control (platelets [4]; [10]): 12-50%

G(Pen)IARGDWNCA
IC50 [5]: 0.04 µM

G(dPen)GHRGDLRCA
fold more potent than analogue 1 in the αIIbβ3 assay (αIIbβ3): approximately 2 fold

GRGDSP [reference compound]
IC50 (canine platelets; all three responses (ADP, arachidonic acid, collagen), read-out: concentration inhibiting canine platelet aggregation by 50%): ~130 µM

R(Pen)GHRGDWRCR [4Q]
coronary thrombosis: time to full occlusion (coronary thrombosis; 5 mg/kg): significantly prolonged the time to occlusion | thrombus formation in animals with platelet levels one-third of normal (coronary thrombosis; 5 mg/kg): able to prevent thrombus formation | coronary thrombosis: time to full occlusion (coronary thrombosis; 10 mg/kg): completely prevented occlusion | IC50 (platelets [6]): 1.3 µM | IC50 (platelets [7]): 3.3 µM | ex vivo platelet activation by collagen (platelets [4]; 5 mg/kg injection): near-maximal inhibition | ex vivo platelet response to ADP and AA (platelets [4]; 5 mg/kg injection, all three time points): completely unresponsive | ex vivo platelet aggregation by ADP, AA and collagen (platelets [4]; 10 mg/kg injection): prevented platelet aggregation by all three stimuli at one- and three-hour time points
